Reference: patent EP0751947B1, “GLUCOSIDIC DERIVATIVES OF N-ACYL ALKYLAMINES EXERTING NEUROPROTECTIVE, NEUROTROPHIC AND ANTI-INFLAMMATORY ACTION, USEFUL IN ACUTE AND CHRONIC DISORDERS OF THE CENTRAL NERVOUS SYSTEM CONNECTED WITH EXCITOTOXICITY” (LIFEGROUP S.p.A., priority 1994, dated 1995)

Columns and labels:
granule cells = experiment: neuroprotective effect against Excitatory Amino Acids (L-glutamic acid)-induced neuronal death in vitro, cell survival by MTT; type: cell-based, mouse; conditions: for survived cells (%): A: Glu 500 µM, 5 min, incubated 24 hrs; for cytoprotection against Glu neurotoxicity: result in words, Glu 500 µM for 5 min, Table 5; for Survived Cells: co-treatment
Description: The compounds being evaluated, referred to as No. 1, 2, 3, 4, 5, 9 and 10 (with reference to the molecules whose syntheses have been described by way of example), Diltiazem, MK 801 and monosialoganglioside GM1, were solubilized in Locke's solution and added to the culture mediums at the desired concentrations according to different treatment schedule indicated in the Tables, with a view to checking: • dose-effect relationship; • time-effect relationship vs. incubation time (start and duration) and exposure to neurotoxin.
Granule cell cultures were prepared from post natal day 8-9 mouse Balb-6 cerebellum. The cells were suspended in EBM + 2mM L-glutamine, 100 U/ml penicillin, 50 µg/l gentamicin, 25 mM KCl and 10% fetal calf serum, plated on polylysine substrate, cultured for 8-10 days, and exposed to: i) L-glutamic acid (100 µM) at room temperature for 30-40 min. ii) L-glutamic acid (500 µM) at room temperature for 5 min.
The compounds being evaluated were incubated at different times (2 hrs before and at the same time as exposure) or for different times ranging from 5 to 60 minutes after exposure to L-glutamic acid. The cultures were then brought back to the original medium and the number of survived cells was assessed by colorimetric method (MTT) 24 hours after excitotoxic stimulation.

physchem [1] = experiment: physchem
physchem [2] = conditions: hot water
cerebellar granule cells = experiment: protection against apoptotic neuronal cell death induced by low potassium (KCl 5mM), MTT assay; type: cell-based, Mouse; conditions: compound 100 µM in DMSO 0.2%, MTT 24 hrs later
Description: The compounds as in Ex.3, 5, 8, 9 and 11 and GM1 were solubilized in DMSO 0.2% and added to the cells at the desired concentration.
Mouse (Balb 6, 8-9 post-natal day) cerebellar granule cells were plated in basal Eagle medium (BEM) + 10% fetal calf serum + 25 […] + 2 mM glutamine + 100 µg/ml gentamicine dishes and coated with poly/L lisine. Culture medium was replaced with serum-free medium 6-9 days after plating. […] Neuronal cell survival was measured 24 hrs later by MTT assay.

solubility in water = conditions: for solubility: hot water
[3] = solubility in organic solvents; conditions: ethanol and dmso, organic solvent or mixture
RBL-2H3 cells = experiment: [3H]serotonin release assay in DNP-HSA stimulated RBL-2H3 cells; type: cell-based, Rat; conditions: co-treatment with DNP-HSA, 15 min; 100 µM or 60 µM (not assigned per compound)
Description: The compounds under evaluation as per Ex. 1, 3, 4, and 9 were dissolved in DMSO 0.2%, while the compound of Ex. 6 was dissolved in DMSO 1%, and they were added at the desired concentration of 100 µM or 60 µM.
Rat basophil leukemia cells of the secreting subline 2H3 were grown in stationary cultures at 37°C in Eagle's minimal essential medium supplemented to contain 2mM L-glutamine, 100 IU/ml penicillin and 20% (v/v) heat-inactivated fetal calf serum (FCS). Cells were passed twice a week.
A mouse monoclonal IgE which is specific for dinitrophenol (DNP) haptens (clone SPE-7; Sigma) was used. Dinitrophenylated human serum albumin (DNP-HSA) was employed as the triggering agent in these experiments. The level of conjunction was 30-40 moles of DNP per mole of albumin (Sigma). […] The culture supernatants were then collected in Eppendorf tubes, centrifuged (4 min, 3000 rpm) and 50 µl aliquots counted by standard liquid scintillation techniques. The cellular contents of each well were solubilized with 100 µl of 1% Triton X-100 in PBS, and a 50 µl aliquot counted as above. The percent of [3H]serotonin release was calculated.
Background (spontaneous) release was normally < 5 % of the total radioactivity incorporated, and was always substracted from the stimulated release value ("net" release).

[4] = compound 10 µM added 0 min after Glu removal

## C[C@]12N[C@H](Cc3ccccc31)c1ccccc12 [MK 801, reference compound]
Granule cells; [4]
  survived cells (%): 66%
Granule cells; compound 10 µM added 15 min after Glu removal
  survived cells (%): 32%
Granule cells; compound 10 µM added 30 min after Glu removal
  survived cells (%): 30%
Granule cells
  cytoprotection against Glu neurotoxicity: protective, at least partially, only after co-treatment

## CCCCCCCCCCCC(=O)NCCO[C@H]1O[C@H](CO)[C@@H](O)[C@H](O)[C@H]1O [Example 14, 2-0-(α-D-glucopyranosyl)-N-dodecanoyl-aminoethanol]
Physchem [1]; ethanol and dmso
  solubility: > 10000 µg/mL
Physchem [2]
  solubility: > 10000 µg/mL

## COc1ccc([C@@H]2Sc3ccccc3N(CCN(C)C)C(=O)[C@@H]2OC(C)=O)cc1 [Diltiazem, reference compound]
Granule cells; [4]
  survived cells (%): 35%
Granule cells
  cytoprotection against Glu neurotoxicity: does not show any significant action

## CCCCCCCCCC(=O)NCCO[C@@H]1O[C@H](CO)[C@@H](O)[C@H](O)[C@H]1O [Example 8, 2-0-(β-D-glucopyranosyl)-N-decanoyl-aminoethanol]
Cerebellar granule cells
  Cell survival (%): 51%
Solubility in water
  solubility: > 10000 µg/mL
[3]
  solubility: > 10000 µg/mL

## O=C(CCCCCCCC(=O)NCCO[C@@H]1O[C@H](CO)[C@@H](O)[C@H](O)[C@H]1O)NCCO[C@@H]1O[C@H](CO)[C@@H](O)[C@H](O)[C@H]1O [Example 12, N,N'-bis-[2-0-(β-D-glucopyranosyl)-ethyl]-nonanediamide]
Physchem [1]; dmso
  solubility: > 10000 µg/mL
Physchem [2]
  solubility: > 10000 µg/mL

## CCCCCCCCCCCCCCCCCC(=O)NCCO[C@@H]1O[C@H](CO)[C@@H](O)[C@H](O)[C@H]1O [Example 11, 2-0-(β-D-glucopyranosyl)-N-stearoyl-aminoethanol]
Cerebellar granule cells
  Cell survival (%): 51%
Physchem [1]; dmso and hot isopropyl alcohol
  solubility: > 10000 µg/mL

## CCCCC/C=C\C/C=C\C/C=C\C/C=C\CCCC(=O)NCCO[C@@H]1O[C@H](CO)[C@@H](O)[C@H](O)[C@H]1O [Example 13, 2-0-(β-D-glucopyranosyl)-N-arachidonoyl-aminoethanol]
Solubility in water; result in words
  water solubility: poorly soluble
[3]
  solubility: > 10000 µg/mL

## monosialoganglioside GM1 [reference compound]
Granule cells; compound 100 µM added 0 min after Glu removal
  survived cells (%): 31%
Granule cells
  cytoprotection against Glu neurotoxicity: does not show any significant action
Cerebellar granule cells
  Cell survival (%): 78%

## O=C(NCCO[C@@H]1O[C@H](CO)[C@H](O)[C@H](O)[C@H]1O)c1ccccc1 [Example 6, 2-0-(β-D-galactopyranosyl)-N-benzoyl-aminoethanol]
RBL-2H3 cells
  % of inhibition (serotonin net release inhibition): 54%
Solubility in water
  solubility: > 10000 µg/mL
[3]
  solubility: > 10000 µg/mL

## CCCCCCCCCCCCCCCC(=O)NCCO[C@@H]1O[C@H](CO)[C@@H](O)[C@H](O)[C@H]1O [Example 1, 2-O-(β-D-glucopyranosyl)-N-palmitoylaminoethanol]
Granule cells; Glu 100 µM, 40 min, room temperature, compound 100 µM added 2 hrs before and then removed, survival after 24 hrs
  survived cells (%) pre.: 44%
Granule cells; Glu 100 µM, 40 min, room temperature, compound 100 µM added at the same time, survival after 24 hrs
  survived cells (%) co.: 57%
Granule cells; Glu 100 µM, 40 min, room temperature, compound 100 µM, 2 hrs before and at the same time, survival after 24 hrs
  survived cells (%) pre.+ co.: 35%
Granule cells; Glu 100 µM, room temperature, 40 min, compound 10 µM
  Survived Cells: 22%
Granule cells; Glu 100 µM, room temperature, 40 min, compound 25 µM
  Survived Cells: 35%
Granule cells; Glu 100 µM, room temperature, 40 min, compound 50 µM
  Survived Cells: 48%
Granule cells; Glu 100 µM, room temperature, 40 min, compound 100 µM
  Survived Cells: 67%
Granule cells; Glu 100 µM, room temperature, 40 min, compound 200 µM
  Survived Cells: 90%
RBL-2H3 cells
  % of inhibition (serotonin net release inhibition): 57%
Solubility in water; at room temperature, result in words
  solubility in water: poorly soluble
Solubility in water
  solubility: > 10000 µg/mL
[3]
  solubility: > 10000 µg/mL
